Laboratory results published in article PMC7822874, “Chemoprotective antimalarials identified through quantitative high-throughput screening of Plasmodium blood and liver stage parasites” (Scientific Reports, 2021).
Read-outs that look alike come from different tables or passages of the source. Each block holds one compound with its values, some of them ahead of it.

Key:
in vitro [1] = settings: human, hepg2 cells
[2] = test system: Plasmodium falciparum Dd2 asexual blood stage parasites; assay: microbe, parasite or virus in culture; set-up: species or system Plasmodium falciparum Dd2 in human erythrocytes; single determination (one 11-point concentration-response curve); settings: Plasmodium falciparum, DD2, Erythrocyte, 72 h; read-out: AC50
in vitro [3] = settings: human
HepG2 = settings: human, hepg2 cells, 48 h
[4] = test system: P. berghei-ANKA-GFP-LucCON liver stage parasites in HepG2-A16-CD81EGFP cells; assay: P. berghei liver stage Pb-Luc assay, Method 1 (UCSD, 1536-well); format: cell-based, Plasmodium berghei; settings: for Max Resp (signal direction of the dose response) / AC50: Method 1; for Max Resp (signal direction of the dose response): Decrease = decreasing P. berghei viability with dose, Increase = increasing signal, Inactive = no dose response; for AC50 / activity at 1 µM / activity at 3 µM: Plasmodium berghei; for activity at 1 µM / activity at 3 µM: 48 h, average of 2 wells on a 1536 well plate; for activity at 1 µM: 1 uM (compounds provided at 10 mM); for activity at 3 µM: 3 uM (compounds provided at 10 mM)
[5] = HepG2-A16-CD81EGFP cells, uninfected
[6] = Hill fit, 50% of maximum activity response, read-out: AC50
[7] = log10 of molar AC50 from Hill fit, read-out: Log AC50 (converted)

Structure (SMILES): Cc1cnc(C(=O)Nc2cccc3cccnc23)cn1 [MLS000033120-01]
CC50 at 48 h (in vitro [1]): 0.611 µM
AC50 [2]: 2.66 µM
viability at 66 h (in vitro [3]; [5]): 105%
Log AC50 (M) (HepG2): -6.2143 M

Structure (SMILES): CCN1CC=C(c2c[nH]c3ccccc23)CC1 [MLS000093713-01]
CC50 at 48 h (in vitro [1]): 24.3 µM
AC50 [2]: 4.22 µM
viability at 66 h (in vitro [3]): 103%
Log AC50 (M) (HepG2): -4.6143 M

Structure (SMILES): Cc1cc(O)c(-c2cc(C(=O)Nc3sc4c(c3C(=O)NCc3ccco3)CCC4)[nH]n2)cc1C [MLS000331999-01]
CC50 at 48 h (in vitro [1]): 34.3 µM
Max Resp (signal direction of the dose response) [4]: Inactive
viability at 66 h (in vitro [3]; [5]): 106%
Log AC50 (M) (HepG2): -4.4643 M

Structure (SMILES): Cc1nc2c(=O)n(C)c(=O)nc-2n(C)n1 [MLS000528498-01]
CC50 at 48 h (in vitro [1]): 0.862 µM
AC50 [2]: 0.422 µM
Max Resp (signal direction of the dose response) [4]: Decrease
AC50 [4, 6]: 0.056 µM
AC50 [4, 7]: 0.0562 µM
Log AC50 (M) (HepG2): -6.0643 M

Structure (SMILES): CCNc1nc(NC(C)(C)C)nc(N2CCCC2)n1 [MLS000528993-01]
CC50 at 48 h (in vitro [1]): 43.2 µM
AC50 [2]: 2.37 µM
viability at 66 h (in vitro [3]; [5]): 99.9%
Log AC50 (M) (HepG2): -4.3643 M

Structure (SMILES): CC(=O)Nc1ccc(NC2=Nc3ccccc3N3C2=Nc2c(c(C)nn2-c2ccccc2)C3c2ccccc2)cc1 (stereo not shown) [MLS000555438-01]
CC50 at 48 h (in vitro [1]): 48.5 µM
AC50 [2]: 6.68 µM
viability at 66 h (in vitro [3]; [5]): 95.3%
Log AC50 (M) (HepG2): -4.3143 M

Structure (SMILES): CN1C2CCC1/C(=C/c1ccccn1)C(=O)/C2=C\c1ccccn1 [MLS000702810-01]
CC50 at 48 h (in vitro [1]): 15.3 µM
Max Resp (signal direction of the dose response) [4]: Decrease
AC50 [4, 6]: 0.794 µM
AC50 [4, 7]: 0.794 µM
viability at 48 h (in vitro [3]): 76.4%
viability at 48 h, 1 µM (in vitro [3]): 76.4%
Log AC50 (M) (HepG2): -4.8143 M

Structure (SMILES): CCOc1ccc(Nc2nc(NCC3CCCO3)c3ccccc3n2)cc1 (stereo not shown) [MLS000724397-01]
CC50 at 48 h (in vitro [1]): 43.2 µM
AC50 [2]: 1.88 µM
viability at 48 h, 1 µM (in vitro [3]; [5]): 104%
viability at 48 h, 3 µM (in vitro [3]; [5]): 83%
Log AC50 (M) (HepG2): -4.3643 M

Structure (SMILES): CCCN(CCC)CCCN=C(S)Nc1ccc2nc(N3CCCC3)cc(C)c2c1 [MLS000730709-01]
CC50 at 48 h (in vitro [1]): 43.2 µM
activity at 1 µM ([4]; column 11, read-out: Pb-Luc (P. berghei liver stage), % of control, lower concentration, first repeat): 141%
activity at 1 µM ([4]; column 12, read-out: Pb-Luc (P. berghei liver stage), % of control, lower concentration, second repeat): 128%
activity at 3 µM ([4]; column 8, read-out: Pb-Luc (P. berghei liver stage), % of control, higher concentration, first repeat): 67%
activity at 3 µM ([4]; column 9, read-out: Pb-Luc (P. berghei liver stage), % of control, higher concentration, second repeat): 66%
viability at 48 h, 1 µM (in vitro [3]; [5]): 112%
viability at 48 h, 3 µM (in vitro [3]; [5]): 103%
Log AC50 (M) (HepG2): -4.3643 M

Structure (SMILES): CC1(C)N=C(N)N=C(N)N1c1ccc(OCCCOc2ccccc2)c(Cl)c1 [MLS000738223-01]
CC50 at 48 h (in vitro [1]): 7.69 µM
AC50 [2]: 2.99 µM
viability at 48 h, 1 µM (in vitro [3]; [5]): 39%
viability at 48 h, 3 µM (in vitro [3]; [5]): 32%
Log AC50 (M) (HepG2): -5.1143 M

Structure (SMILES): OC(c1cc(-c2ccc(C(F)(F)F)cc2)nc(C(F)(F)F)c1)C1CCCCN1 (stereo not shown) [MLS000757046-01]
CC50 at 48 h (in vitro [1]): 43.2 µM
AC50 [2]: 0.15 µM
viability at 48 h, 1 µM (in vitro [3]; [5]): 109%
viability at 48 h, 3 µM (in vitro [3]; [5]): 105%
Log AC50 (M) (HepG2): -4.3643 M

Structure (SMILES): CCN1CCN(Cc2ccc(NC(=O)c3ccc(C)c(NC(=O)c4cnc5cc(C(F)(F)F)ccc5c4O)c3)cc2C(F)(F)F)CC1 [MLS000911561-01]
CC50 at 48 h (in vitro [1]): 34.3 µM
AC50 [2]: 0.531 µM
viability at 48 h, 1 µM (in vitro [3]; [5]): 107%
viability at 48 h, 3 µM (in vitro [3]; [5]): 104%
Log AC50 (M) (HepG2): -4.4643 M

Second part, led by results:

Log AC50 (M) (HepG2): -5.5643 M
Structure (SMILES): c1ccc(-c2nc(N3CCCCCC3)c3ccccc3n2)nc1 [MLS000042263-01]
CC50 at 48 h (in vitro [1]): 2.73 µM
AC50 [2]: 1.68 µM
viability at 48 h, 1 µM (in vitro [3]; [5]): 102%
viability at 48 h, 3 µM (in vitro [3]; [5]): 88%

Log AC50 (M) (HepG2): -4.4643 M
Structure (SMILES): N=c1ccn(Cc2ccc(Cl)cc2)cc1 [MLS000080110-01]
CC50 at 48 h (in vitro [1]): 34.3 µM
AC50 [2]: 8.41 µM
viability at 66 h (in vitro [3]; [5]): 101%

Log AC50 (M) (HepG2): -4.3643 M
Structure (SMILES): CCc1ccc(Nc2cc(=O)n(C3CCCCC3)c(=O)[nH]2)cc1 [MLS000094379-01]
CC50 at 48 h (in vitro [1]): 43.2 µM
viability at 66 h (in vitro [3]; [5]): 104%

Log AC50 (M) (HepG2): -4.3643 M
Structure (SMILES): O=C(NC(c1ccc(Cl)cc1)c1cc(Cl)c2cccnc2c1O)c1cccnc1 (stereo not shown) [MLS000573463-01]
CC50 at 48 h (in vitro [1]): 43.2 µM
AC50 [2]: 5.96 µM
viability at 48 h, 1 µM (in vitro [3]; [5]): 84%
viability at 48 h, 3 µM (in vitro [3]; [5]): 68%

Log AC50 (M) (HepG2): -4.3643 M
Structure (SMILES): c1ccc2cc3c(NCCN4CCOCC4)ccnc3cc2c1 [MLS000702892-01]
CC50 at 48 h (in vitro [1]): 43.2 µM
AC50 [2]: 1.68 µM
viability at 48 h, 1 µM (in vitro [3]; [5]): 89%
viability at 48 h, 3 µM (in vitro [3]; [5]): 92%

Log AC50 (M) (HepG2): -4.9143 M
Structure (SMILES): Cc1cccc(Oc2nc(-c3ccccn3)nc3ccccc23)c1 [MLS000769548-01]
CC50 at 48 h (in vitro [1]): 12.2 µM
AC50 [2]: 7.5 µM
viability at 48 h (in vitro [3]; [5]): 106%
viability at 48 h, 1 µM (in vitro [3]; [5]): 106%
